Common to all, as to format: cell-based, human
Experiment [1] has as its system p-ERK in NCI-H441 cells (KRAS G12V mutation). In words: Cell p-ERK assay (HTRF) in NCI-H441 cells. To be noted: NCI-H441 cells, 3 h compound incubation, HTRF p-ERK T202/Y204, read-out: H441 p-ERK IC50. On the procedure: (§1) AsPC-1 cells were purchased from ATCC, Cat. No. CRL-1682: NCI-H441 cells were purchased from ATCC, Cat. No. HTB-174: RPMI-1640 medium was purchased from Gibco, Cat. No. I1875-093: FBS was purchased from Gibco, Cat. No. 10099-141C: penicillin/streptomycin double-antibiotic solution (PS) was purchased from Gibco, Cat. No. 15140-122: trypsin (containing EDTA) was purchased from Gibco, Cat. No. 25200-072; DMSO was purchased from VWRAMRESCO, Cat. No. 0231-500ML; 96-well cell culture plates were purchased from Corning, Cat. No. 3599: white-bottomed, opaque 96-well plates were purchased from Cisbio, Cat. No. 66PL96025; Advance ERK phospho-T202/Y204 kit was purchased from Cisbio, Cat. No. 64AERPEH; cell counter was purchased from CHEMOMETEC, model: NC-200; microplate reader was purchased from PerkinElmer, model: EnVision.
(§2) AsPC-1, a human pancreatic cancer cell strain endogenously containing a KRAS^G12D mutation, was cultured in a complete medium containing RPMI-1640+10% FBS+1% PS. NCI-H441, a human non-small cell lung cancer cell strain endogenously containing a KRAS^G12V mutation, was cultured in a complete medium containing RPMI-1640+10% FBS+1% PS.
(§3) The cells were digested with trypsin (containing EDTA), collected in their corresponding complete media, and counted. The density of the cell suspensions was adjusted with their corresponding complete media, and 10000 AsPC-1 cells or 20000 NCI-H441 cells per well were seeded into a 96-well cell culture plate, with the volume of the medium in each well being 80 μL.
(§4) The cell culture plate was incubated in an incubator at 37° C. with 5% CO2 overnight. A series of 3.16-fold gradient dilutions of a 1000- compound stock solution were prepared with DMSO, and then diluted 200-fold with the complete medium described above to give 5′ compound stock solutions. On the day after cell seeding, 20 μL of the 5× compound stock solution was added to each cell culture well. As a result, the final concentration of the compound in the cell culture well became 1×, and the DMSO content in the well was 0.1%. In addition to the compound-treated wells described above, cell-containing DMSO control wells were also set. A complete medium containing 0.5% DMSO was added at 20 μL/well. After the mixture was well mixed, the culture plate was incubated in the incubator at 37° C. with 5% CO2 for another 3 h. The medium was then removed from the culture wells, and 50 μL of cell lysis buffer (from Advance ERK phospho-T202,Y204 kit) was added to each well. The mixture was well mixed and incubated for 30 min. Then, 16 μL of the mixture was transferred to a white-bottomed, opaque 96-well assay plate, and separately, 16 μL of cell lysis buffer was added to additional wells (serving as blank wells) in the assay plate. After the transfer was completed, 4 μL of p-ERK HTRF antibody mixture (from Advance ERK phospho-T202/Y204 kit) was added to each well of the assay plate, followed by a 4-hour incubation. The HTRF signal values (RLU) were then measured using a microplate reader, and the inhibition rate of the compound against p-ERK levels was calculated as follows: IR (%)=(RLUDMSO−RLUcompound)/(RLUDMSO−RLUblank)×100%, where RLUDMSO is the average HTRF signal value from the DMSO control well samples, RLUblank is the average HTRF signal value from the blank well samples, and RLUcompound is the HTRF signal value from the compound-treated well samples. Using an XLfit software, the IR (%) values were plotted against the logarithm of the compound concentrations, and the dose-response curves were fitted using the four-parameter method to calculate the IC50 values.
A general note: Time-resolved FRET reads energy transfer from a long-lived donor to a nearby acceptor.

Experiment [2] deals with p-ERK in AsPC-1 cells (KRAS G12D mutation). Nature of the experiment: Cell p-ERK assay (HTRF) in AsPC-1 cells. To be noted: AsPC-1 cells, 3 h compound incubation, HTRF p-ERK T202/Y204; read-out: AsPC-1 p-ERK IC50. On the procedure:
as §1, §2, §3, §4

The test system of a further experiment is NCI-H441 cells. In words: 3D cell proliferation assay (CellTiter Glo-3D), NCI-H441. To be noted: medium with 2% FBS, read-out: H441 AP IC50. The source says:
MIA PaCa-2 cells were purchased from ATCC, Cat. No. CRL-1420; AsPC-1 cells were purchased from ATCC, Cat. No. CRL-1682; NCI-H441 cells were purchased from ATCC, Cat. No. HTB-174: NCI-H1975 cells were purchased from ATCC. Cat. No. CRL-5908; DMEM medium was purchased from Gibco, Cat. No. 11995-065: RPMI-1040 medium was purchased from Gibco. Cat. No. H 18754093; FBS was purchased from Gibco, Cat. No. 10099-141C. penicillin, streptomycin double-antibiotic solution (PS) was purchased from Gibco, Cat. No. 15140-122; Horse serum was purchased from Gibco. Cat. No. 16050130: trypsin (containing EDTA) was purchased from Gibco, Cat. No. 25200-072; DMSO was purchased from VWRAMRESCO, Cat. No. 0231-500ML; 384-well cell culture plates were purchased from Corning, Cat. No. 3830; white-bottomed, opaque 384-well assay plates were purchased from Corning, Cat. No. 3570. CellTiter Glo-3D) kit was purchased from Promega. Cat. No. G9683; cell counter was purchased from CHEMOMETEC, model: NC-200: microplate reader was purchased from PerkinElmer, model: EnVision.
MIA PaCa-2, a human pancreatic cancer cell strain endogenously containing a KRAS^G12C mutation, was cultured in a complete medium containing DMEM+10% FBS+2.5% Horse serum+1% PS. AsPC-1, a human pancreatic cancer cell strain endogenously containing a […] mutation, was cultured in a complete medium containing RPMI-1640+10% FBS+1% PS. NCI-H441 cells, a human lung cancer cell strain endogenously containing a […] mutation, were cultured in a complete medium containing RPMI-1640+10% FBS+1% PS. NCI-H1975, a KRAS wild-type human lung cancer cell strain whose cell proliferation depends on KRAS activity, was cultured in a complete medium containing RPMI-1640+10% FBS+1% PS.
The cells were digested with trypsin (containing EDTA), collected in their respective low-serum complete media containing 2% FBS (for MIA Paca-2 cell culture: DMEM+2% FBS+0.5% Horse serum+1% PS), and counted. After the cell density was adjusted as required, 200 MIA PaCa-2 cells, 800 AsPC-1 cells, 800 NCI-H441 cells, or 400 NCI-H1975 cells per well were seeded into a 384-well cell culture plate, with the volume of the medium in each well being 45 μL. The cell culture plate was incubated in an incubator at 37° C. with 5% CO2, overnight. A series of 3.16-fold gradient dilutions of a 1000× compound stock solution were prepared with DMSO, and then diluted 100-fold with the complete medium containing 2% FBS described above to give 10- compound stock solutions. On the day after cell seeding, 5 μL of the 10- compound stock solution was added to each cell culture well. As a result, the final concentration of the compound in the cell culture well became 1×, and the DMSO content in the well was 0.1%. In addition to the compound-treated wells described above, cell-containing DMSO control wells (with 5 μL of the complete medium containing 1% DMSO added to each well) and cell-free medium control wells (containing 50 μL of the complete medium with 2% FBS) were also set. The culture plate was incubated in an incubator at 37° C. with 5% CO2 for another 5 days, and then 30 μL of CellTiter-Glo working solution was added to each well. The mixture was well mixed, incubated for 30 min, left to stand at room temperature for 30 min, and then transferred to a white-bottomed, opaque 384-well assay plate at 40 μL/well. The chemiluminescence values (RLU) were measured using a microplate reader, and the cell proliferation inhibition rate for each well was calculated: IR (%)=(RLUDMSO—RLUcompound)/(RLUDMSO−RLUblank)×100%, where RLUDMSO is the average RLU signal value from the DMSO control well samples, RLUblank is the average RLU signal value from the medium control well samples, and RLUcompound is the RLU signal value from the compound-treated well samples. […]
In general terms: Cellular ATP, detected with luciferase, serves as a proxy for viable cell number.

The mark [3] stands for this setting: 3D cell proliferation (CellTiter Glo-3D).

Molecules are shown by their SMILES. Like-named read-outs stand apart in the source and are kept apart here.

By IC50 is commonly meant the concentration at which inhibition is half-maximal. On to `CCn1c(-c2cc(C#CCN3CCS(=O)(=O)CC3)cnc2C(C)OC)c2c3cc(ccc31)-c1csc(n1)CC(NC(=O)CC1CC1)C(=O)N1CCCC(N1)C(=O)OCC(C)(C)C2` (atropisomer, axis not shown; (Ra)) [Compound Z962, 2-cyclopropyl-N-((6^3S,4S,Z)—(Ra)-1^2-(5-(3-(1,1-dioxidothiomorpholino)prop-1-yn-1-yl)-2-((S)-1-methoxyethyl)pyridin-3-yl)-1^1-ethyl-10,10-dimethyl-5,7-dioxo-6^1,6^2,6^3,6^4,6^5,6^6-hexahydro-1^1H-8-oxa-2(4,2)-thiazola-1(5,3)-indola-6(1,3)-pyridazinacycloundecaphane-4-yl)acetamide], for which the IC50 in experiment [1] stood at 0.15 nM; in experiment [2], 0.26 nM.

Regarding `C=C1CCN2CCN(c3cnc([C@H](C)OC)c(-c4c5c6cc(ccc6n4CC)-c4csc(n4)C[C@H](NC(=O)[C@H]4[C@H](C)[C@@H]4C)C(=O)N4CCC[C@H](N4)C(=O)OCC(C)(C)C5)c3)C[C@H]2C1` (atropisomer, axis not shown; (Sa)) [Compound Z549, (1r,2R,3S)—N-((6^3S,4S,Z)-1^1-ethyl-(Sa)-1^2-(2-((S)-1-methoxyethyl)-5-((R)-8-methyleneoctahydro-2H-pyrido[1,2-a]pyrazin-2-yl)pyridin-3-yl)-10,10-dimethyl-5,7-dioxo-6^1,6^2,6^3,6^4,6^5,6^6-hexahydro-1′H-8-oxa-2(4,2)-thiazola-1(5,3)-indola-6(1,3)-pyridazinacycloundecaphane-4-yl)-2,3-dimethylcyclopropane-1-carboxamide], the IC50 stood at 26.7 nM in experiment [1] and 32.6 nM in experiment [2].

Take `CCn1c(-c2cc(OCCN3CCS(=O)(=O)CC3)cnc2[C@H](C)OC)c2c3cc(ccc31)-c1csc(n1)C[C@H](NC(=O)[C@H]1[C@H](C)[C@@H]1C)C(=O)N1CCC[C@H](N1)C(=O)OCC(C)(C)C2` (atropisomer, axis not shown; (Sa)) [Compound Z470, (1r,2R,3S)—N-((6^3S,4S,Z)—(Sa)-1^2-(5-(2-(1,1-dioxidothiomorpholino)ethoxy)-2-((S)-1-methoxyethyl)pyridin-3-yl)-1^1-ethyl-10,10-dimethyl-5,7-dioxo-6^1,6^2,6^3,6^4,6^5,6^6-hexahydro-1^1H-8-oxa-2(4,2)-thiazola-1(5,3)-indola-6(1,3)-pyridazinacycloundecaphane-4-yl)-2,3-dimethylcyclopropane-1-carboxamide]: the IC50 was determined as 69.4 nM in experiment [1] and 35.3 nM in experiment [2].

Regarding `CCn1c(-c2cc(C#CCN3CCCOCC3)cnc2[C@H](C)OC)c2c3cc(ccc31)-c1csc(n1)C[C@H](NC(=O)[C@H](C(C)C)N(C)[S@@](C)(=O)=NC)C(=O)N1CCC[C@H](N1)C(=O)OCC(C)(C)C2` (single isomer, unassigned) [Compound Z912-2], the half-inhibitory concentration (IC50) was found to be 8.59 nM in the experiment on NCI-H441 cells (setting [3]) and 3.41 nM in experiment [1].

Turning to `CCn1c(-c2cc(N3CCN(C)CC3)cnc2[C@H](C)OC)c2c3cc(ccc31)-c1csc(n1)C[C@H](Nc1nnc3n1CCCC3)C(=O)N1CCC[C@H](N1)C(=O)OCC(C)(C)C2` (atropisomer, axis not shown; (Ra)) [Compound Z423], the IC50 with NCI-H441 cells (Homo sapiens, NCI-H441, 3D cell proliferation (CellTiter Glo-3D)) is 74.2 nM; in experiment [1] (Homo sapiens, NCI-H441, 3 h), 33.3 nM.

As for `CCn1c(-c2cc(OCCN3CC[S+]([O-])CC3)cnc2[C@H](C)OC)c2c3cc(ccc31)-c1csc(n1)C[C@H](NC(=O)[C@H]1[C@H](C)[C@@H]1C)C(=O)N1CCC[C@H](N1)C(=O)OCC(C)(C)C2` (atropisomer, axis not shown; (Sa)) [Compound Z600-1], the IC50 in the experiment on NCI-H441 cells (setting [3]) came out at 96.3 nM; in experiment [1] it was 82.7 nM.
